Measured values as given in patent publication US10532081B2, “Method of ameliorating or preventing the worsening or the progression of symptoms of BPH” (Nymox Corporation, priority 2016, dated 2020).
Marks after values point to notes of the source that are not given here.

Test system: Patients with BPH
Experiment: Double-blind clinical study: intraprostatic injection in patients with BPH, symptoms evaluated by International Prostate Symptom Score (IPSS)
Type: in vivo, human
Text: The International Prostate Symptom Score (I-PSS) is based on the answers to seven questions concerning urinary symptoms and one question concerning quality of life. Each question concerning urinary symptoms allows the patient to choose one out of six answers indicating increasing severity of the particular symptom. The answers are assigned points from 0 to 5. The total score can therefore range from 0 to 35 (asymptomatic to very symptomatic). The questions refer to the following urinary symptoms:
Patients with BPH were given an intraprostatic injection of either a) SEQ ID NO. 66 (Ile-Asp-Gln-Gln-Val-Leu-Ser-Arg-Ile-Lys-Leu-Glu-Ile-Lys-Arg-Cys-Leu) in phosphate buffered saline pH 7.2 (“PBS”) or b) PBS alone, under double-blind conditions by a urologist in an office setting under ultrasound guidance. Patients were followed for 1 to 6 years with regular physical examinations, laboratory tests, and evaluations of symptoms. Symptomatic evaluation was measured by the International Prostate Symptom Score (IPSS) which is a quantitative scale used to gauge prostatic symptomatic improvement or worsening. The IPSS quantifies the following: 1) incomplete bladder emptying after urination; 2) frequent urination; 3) stopping and starting during urination; 4) urgent need to urinate; 5) weakness of urinary stream; 6) need to push or strain during urination; 7) need to urinate after going to sleep at night (nocturia). The difference from baseline IPSS was compared in all patients who were given an intraprostatic injection of SEQ ID NO. 66 to the difference from baseline IPSS in patients who received PBS alone. […] 66 treated patients, there was also an unexpected decrease in the incidence of worsening and progression in symptoms in patients treated with SEQ ID NO. 66.
Patients with BPH were given an intraprostatic injection of either a) SEQ ID NO. 66 in phosphate buffered saline pH 7.2 (“PBS”) or b) PBS alone, under double-blind conditions by a urologist in an office setting under ultrasound guidance. Subsequently, 326 placebo and SEQ ID NO. 66 treated subjects were administered an intraprostatic injection of SEQ ID NO. 66 (2.5 mg). Patients were followed for 1 to 6 years with physical examinations, laboratory tests, and evaluations of symptoms. Symptomatic evaluation was measured by the International Prostate Symptom Score (IPSS) which is a quantitative scale used to gauge prostatic symptomatic improvement or worsening. The IPSS quantifies the following: 1) incomplete bladder emptying after urination; 2) frequent urination; 3) stopping and starting during urination; 4) urgent need to urinate; 5) weakness of urinary stream; 6) need to push or strain during urination; 7) need to urinate after going to sleep at night (nocturia). The difference from baseline IPSS was compared in placebo patients who subsequently received SEQ ID NO. 66 vs results in patients who received PBS alone. […] 66 treated patients there was also an unexpected decrease in the incidence of worsening or lack of improvement in symptoms in patients treated with SEQ ID NO. 66.
Patients with BPH were given an intraprostatic injection of either a) SEQ ID NO. 66 in phosphate buffered saline pH 7.2 (“PBS”) or b) PBS alone, under double-blind conditions by a urologist in an office setting under ultrasound guidance. Subsequently, 326 subjects were given an intraprostatic injection of SEQ ID NO. 66 (2.5 mg). Symptomatic evaluation was measured by the International Prostate Symptom Score (IPSS) which is a quantitative scale used to gauge prostatic symptomatic improvement or worsening. The IPSS quantifies the following: 1) incomplete bladder emptying after urination; 2) frequent urination; 3) stopping and starting during urination; 4) urgent need to urinate; 5) weakness of urinary stream; 6) need to push or strain during urination; 7) need to urinate after going to sleep at night (nocturia). […]

Q: How did the “Percentage of worsening of IPSS” value (Example 1: all patients given one intraprostatic injection of SEQ ID NO. 66 in PBS, followed 1 to 6 years, p < .02 vs PBS alone) turn out when “IDQQVLSRIKLEIKRCL [SEQ ID NO: 66, NTP peptide Ile-Asp-Gln-Gln-Val-Leu-Ser-Arg-Ile-Lys-Leu-Glu-Ile-Lys-Arg-Cys-Leu, injected intraprostatically in phosphate buffered saline pH 7.2]” was run?
A: 13.1%*

Q: What about the “Percentage of worsening of IPSS or no improvement in IPSS” value (Example 2: placebo patients who subsequently received intraprostatic SEQ ID NO. 66 (2.5 mg), followed 1 to 6 years, p < 0.0001 vs PBS alone) of the same sequence?
A: 17.3%*

Q: And the “Percentage of worsening of IPSS or no improvement in IPSS” value (Example 3: patients who received two intraprostatic injections of SEQ ID NO. 66 (second 2.5 mg), p < 0.0001 vs PBS alone)?
A: 17.6%*

Q: What about the “Percentage of worsening of IPSS or no improvement of IPSS” value (Example 4: all placebo and SEQ ID NO. 66 treated patients subsequently given intraprostatic SEQ ID NO. 66 (2.5 mg), followed 1 to 6 years, p < .0001 vs PBS alone) of the same sequence?
A: 17.5%*

Q: And the “Percentage of worsening of IPSS” value (Example 5: placebo patients who subsequently received intraprostatic SEQ ID NO. 66 (2.5 mg), followed 1 to 6 years, p < 0.0001 vs PBS alone)?
A: 9.0%*

Q: What about the “Percentage of worsening of IPSS” value (Example 6: patients who received SEQ ID NO. 66 and subsequently SEQ ID NO. 66 (2.5 mg) intraprostatic, followed 1 to 6 years, p < 0.05 vs PBS alone) of the same sequence?
A: 13.5%*

Q: What about the “Percentage of worsening of IPSS” value (Example 7: all placebo and SEQ ID NO. 66 treated patients subsequently given intraprostatic SEQ ID NO. 66 2.5 mg, followed 1 to 6 years, p < .0001 vs PBS alone) of the same sequence?
A: 11.7%*

Q: And the “Percentage of worsening of IPSS or no improvement of IPSS” value (Example 8: patients given one intraprostatic injection of SEQ ID NO. 66 in PBS, followed 1 to 6 years, p < .003 vs PBS alone)?
A: 36.4%*

Q: What about the “improvement of symptoms (difference from baseline IPSS) compared to PBS alone” value (SEQ ID NO. 66 patients subsequently treated with SEQ ID NO. 66 (two injections)) of the same sequence?
A: more improvement

Q: And the “improvement of symptoms (difference from baseline IPSS) compared to PBS alone” value (all placebo and SEQ ID NO. 66 treated patients subsequently treated with SEQ ID NO. 66 (2.5 mg))?
A: more improvement

Q: What about the “improvement of symptoms (difference from baseline IPSS) compared to PBS alone” value (one intraprostatic injection of SEQ ID NO. 66, followed 1 to 6 years) of the same sequence?
A: more improvement

Q: What about the “improvement of symptoms (difference from baseline IPSS) compared to PBS alone” value (placebo patients subsequently treated with SEQ ID NO. 66 (2.5 mg)) of the same sequence?
A: more improvement
